The subject of assay [1] is learning disorder-induced mouse. Kind of assay: Y-maze test on learning disorder-induced (LPS) mouse. To be noted: for Learning ability in Y-maze test: LPS-administered mice, Examples 6 and 7. Type of assay: in vivo. On the procedure:
The learning disorder-alleviating activity of the GLP-1 derivative was evaluated by a Y-maze test on a learning disorder-induced mouse, using the FOS 12 solution of GLP-1 derivative.
As the learning disorder-induced mouse, ddY mice (5-7 week old, male, n=5) were administered with lipopolysaccharide (LPS) by 10 μg at three days before the test. Fifteen minutes before the administration of LPS, the mice were administered with GLP-1 derivative by 3 μg with the FOS 12 solution of GLP-1 derivative.
The Y-maze test was performed by using a device having three arms of the same size. The number of times that the mouse entered the different arm for consecutive three times was counted, and the result was divided by a number obtained by deducting 2 from the total number of times of entering the arm. The result was multiplied by 100, and used as a spontaneous alternation behavior (%).
As a control, mice (5-7 week old, male, n=5 or 7), intranasally administered a solvent without GLP-1 derivative by 4 μL 15 minutes before the administration of LPS, were subjected to the same test as the above. Further, mice that were not administered with LPS (vehicle) were subjected to the same test as the above. The error bar represents mean±SE (n=5 or 7), and the statistical processing was performed by Mann-Whitney test (*P<0.05, **P<0.01).
As the learning disorder-induced mouse, ddY mice (5-7 week old, male, n=6) administered with lipopolysaccharide (LPS) by 10 μg three days before the test were used. Fifteen minutes before the administration of LPS, the mice were administered with NmU derivative by 3 μg with the FOS 12 solution of NmU derivative. A Y-maze test was performed in the same manner as Example 6, and a spontaneous alternation behavior (%) was calculated from the measurement results.
As a control, mice (5-7 week old, male, n=6), which were intranasally administered a solvent without NmU derivative by 4 μL 15 minutes before the administration of LPS, were subjected to the same test as the above. Further, mice not administered with LPS (vehicle) were subjected to the same test as the above. The error bar represents mean±SE (n=6), and the statistical processing was performed by Mann-Whitney test (*P<0.01, **P<0.001).

A further assay deals with rats. Briefly: Forced-swim test on rats (anti-depression activity). It counts as in vivo, rat. To be noted: intranasal 18 μg/day. On the procedure: The anti-depression activity of the GLP-2 derivative was evaluated by a forced-swim test on rats using the DMSO solution of GLP-2 derivative. The forced-swim test was performed in accordance with the following procedure.
One hour before the test, rats (8-10 week old, male, n=6) were transferred to the laboratory for habituation. The rats were intranasally administered with the DMSO solution of GLP-2 derivative by 18 μg/day for two days, 30 minutes before the test. The rats were allowed to swim for 15 minutes, one by one in a transparent plastic cylinder with a diameter of 18 cm and a height of 50 cm filled with water of 25±1° C. to a height of 30 cm. During the swimming, the immobility time (s) was measured. The rats after the test were wiped with a Kimtowel and placed back to a cage. The test was performed for consecutive 2 days, day 1 as a preliminary test and day 2 as a main test. As a control, rats (8-10 week old, male, n=6) were intranasally administered with a solvent without GLP-2 derivative by 10 μL and subjected to a forced-swim test in the same manner. The error bar represents mean±SE (n=6), and the statistical processing was performed by Mann-Whitney test (*P<0.05). […]

Assay [2] relates to ddY mice. Kind of assay: Forced-swim test on a mouse. It counts as in vivo. To be noted: Example 3, mouse forced-swim test. On the procedure:
The anti-depression activity of the GLP-2 derivative was evaluated by a forced-swim test on a mouse. The test was performed by the following process.
Twenty-four hours before the test, ddY mice (5-7 week old, male, n=12) were subjected to a preliminary swimming for 15 minutes. The mice were administered GLP-2 derivative by 3.6 μg with the DMSO solution, on the day before the test and on the day for the test, respectively. Then, the test was performed in the same manner as Example 1, and the immobility time (s) was measured. As a control, mice (5-7 week old, male, n=12) were administered with a solution without GLP-2 derivative were subjected to a forced-swim test in the same manner. The error bar represents mean±SE (n=12), and the statistical processing was performed by Mann-Whitney test (*P<0.05).

Assay [3] has as its system ddY mice. Kind of assay: Tail suspension test on a mouse. It counts as in vivo. To be noted: Example 4, mouse tail suspension test. On the procedure:
The anti-depression activity of the GLP-2 derivative was evaluated by a tail suspension test on a mouse, using the DMSO solution of GLP-2 derivative as prepared in Example 3. The test was performed by the following process.
On the day before the test and on the day for the test, ddY mice (5-7 week old, male, n=9) were administered with the GLP-derivative by 3.6 μg, respectively, with the DMSO solution. Then, the mice were suspended by the tail and the immobility time (s) was measured. As a control, mice (5-7 week old, male, n=9) were intranasally administered with a solvent without GLP-2 derivative and subjected to a tail suspension test in the same manner. The error bar represents mean±SE (n=9), and the statistical processing was performed by Mann-Whitney test (*P<0.05).

The next assay deals with depression model mouse. Kind of assay: Forced-swim test on ACTH-induced treatment-resistant depression model mouse. Type of assay: in vivo. To be noted: Example 5, treatment-resistive depression model. On the procedure: The anti-depression activity of the GLP-2 derivative was evaluated by a forced-swim test on a depression model […] using the DMSO solution of GLP-2 derivative as prepared in Example 3.
As the depression model mouse, ddY mice (5-7 week old, male, n=11) were administered with adrenocorticotropic hormone (ACTH) to induce an enhanced state of hypothalamic-pituitary-adrenal axis (HPA system). The administration of ACTH was performed by 0.45 mg/kg/day for consecutive 14 days.
The forced-swim test was performed in the same manner as Example 3 and the immobility time (s) was measured. The mice were intranasally administered with GLP-2 derivative by 3.6 μg as a DMSO solution of GLP-2 derivative, each day for consecutive 6 days until the day for the test. As a control, mice (5-7 week old, male, n=11) were administered with a solvent without GLP-2 derivative by 4 μL each day for consecutive 6 days and subjected to a forced-swim test in the same manner. The error bar represents mean±SE (n=11), and the statistical processing was performed by Mann-Whitney test (*P<0.01).

Where “and” joins values, the source holds several entries; their conditions need not be identical. Equal entries are not always repeated. Ends that are not written are not given here.

For “FFLIPKG-(R)8-(G)2-HAEGTFTSDVSSYLEGQAAKEFIAWLVKGR-NH2 [GLP-1 derivative]”, the “Alternation behavior (%)” value is 64.3% and 66.7% (2×) and 67.9% and 67.4% in assay [1] (Example 6: LPS 10 μg three days before test, GLP-1 derivative 3 μg 15 minutes before LPS, individual animals n=5); 56.4% and 72.2% and 70.3% and 78.6% and 67.6% in assay [1] (Example 6: Vehicle (mice not administered LPS), GLP-1 derivative 3 μg, individual animals n=5).

For the substance “HAEGTFTSDVSSYLEGQAAKEFIAWLVKGR-NH2 [GLP-1, glucagon-like peptide-1; label printed in b156 where the GLP-1 derivative is probably meant, reference compound]”, in assay [1], the “Learning ability in Y-maze test” value is “learning ability is significantly ameliorated”.

Regarding “YKVNEYQGPVAPSGGFFLFRPRN-NH2 [NmU, neuromedin U; label printed in b156 where the NmU derivative is probably meant, reference compound]”, in assay [1], the “Learning ability in Y-maze test” value is on record as “learning ability is significantly ameliorated”.

“FFFFG-(R)8-(G)2-YKVNEYQGPVAPSGGFFLFRPRN-NH2 (not fully specified (N-terminus)) [NmU derivative, derivative of neuromedin U with PAS (FFFFG), octa-arginine and GG spacer]”: the “Alternation behavior (%)” value in assay [1] (Example 7: LPS 10 μg three days before test, NmU derivative 3 μg 15 minutes before LPS, individual animals n=6) is 58.6% and 72.4% and 66.7% and 60.0% and 74.1% and 69.4%; in assay [1] (Example 7: Vehicle (mice not administered LPS), NmU derivative 3 μg, individual animals n=6), 65.9% and 70.5% and 69.0% and 63.9% and 67.8% and 78.8%.

Consider “HADGSFSDEMNTILDNLAARDFINWLIQTKITD [GLP-2]”, for which the “Immobility time” value with rats (Comparative Example 1: GLP-2 alone, individual animals n=6) was 46 s and 15 s and 45 s and 41 s and 30 s and 33 s. For the same substance, the “Immobility time / anti-depression activity versus control group” value in the assay on rats (Mann-Whitney test) is “no significant difference in the anti-depression activity”. In addition, the “Effect of suppressing depression” value in the assay on ddY mice [2], in the assay with ddY mice [3] and in the assay with depression model mouse was “an effect of suppressing depression is obtained” in each case.

Values taken from patent US20210163567A1, “Method of Delivering a Centrally-Acting Peptide Derivative, and Method of Treating a Neuropsychiatric Disorder” (TOKYO UNIVERSITY OF SCIENCE FOUNDATION, priority 2014, published 2021).
